The values that follow come from PMC12177760, “In Silico Discovery of a Novel Antiviral Scaffold for SARS-CoV‑2 Targeting the Spike Glycoprotein through the Fatty Acid Binding Pocket” (ACS Omega, 2025).

Usually inhibition stands for the change of the read-out against control, counted positive when it falls.

The subject of the assay is SARS-CoV-2 Delta variant in Vero E6 cells. The experiment in a line: microbe, parasite or virus in culture. The class given is cell-based.

SMILES strings stand for the structures.

`CC(c1ccc(-n2cncn2)cc1)N(C)C(=O)CCC(=O)N1CCC(c2ccccc2)=N1` (centres unmarked) [compound 36]: the EC50 (Severe acute respiratory syndrome coronavirus 2, Vero C1008, read-out: EC50 (inhibition of Delta variant-induced CPE)) is 5.77 µM. Further, where the note is “Severe acute respiratory syndrome coronavirus 2, Vero C1008, 33 μM, read-out: maximum inhibition of CPE”, the inhibition at 33 µM stood at 78%.
